Where two headings read alike, the source gives them in different places.
Tests used:
tubulin = experiment: In vitro tubulin polymerisation inhibition (turbidimetric, fluorescent plate reader); type: biochemical; details: mean of three experiments
Experimental: The inhibition assay on microtubule polymerisation was evaluated turbidimetrically using a fluorescent plate reader.
The effect of the synthesised compounds on tubulin polymerisation was assessed turbidimetrically using a fluorescent plate reader method. The complete procedure was depected in Supplementary data.

HepG-2 = experiment: MTT anti-proliferative assay, HepG-2; type: cell-based, human; details: for IC50: Homo sapiens; for times of colchicine cytotoxic activity, HepG-2: ratio of IC50 to colchicine
HCT-116 = experiment: MTT anti-proliferative assay, HCT-116; type: cell-based, human; details: for IC50: Homo sapiens; for times of colchicine cytotoxic activity, HCT-116: ratio of IC50 to colchicine
MCF-7 = experiment: MTT anti-proliferative assay, MCF-7; type: cell-based, human; details: for IC50: Homo sapiens
[1] = tested on: HepG-2, HCT-116, and MCF-7; experiment: MTT anti-proliferative assay, ranges stated over several cell lines; type: cell-based; details: Homo sapiens
HepG-2 cells [2] = experiment: Cell cycle analysis by flow cytometry; type: cell-based, human; details: HepG-2, 1.89 µM, 24 h
Experimental: The impact of the most promising compound 25 on cell cycle distribution was assessed. Such analysis gave a better insight into the effect of the synthesised compounds on cancer cell growth inhibition. HepG-2 cells were utilised in this test. The reported method described by Wand et al.[50] was followed.
The effect of the most promising compound 25 on cell cycle was evaluated using flowcytometer[50]^,[53]^,[54] as illustrated in Supplementary data.

HepG-2 cells [3] = experiment: Annexin V-FITC/PI apoptosis assay; type: cell-based, human; details: HepG-2, 1.89 µM, 24 h
Experimental: Annexin V and PI double staining assay[51] was carried out to explore the proposed apoptotic effect of the synthesised compounds. Compound 25 as a representative example was tested against HepG-2 cells. In this test, HepG-2 cells were incubated with compound 25 at a concentration of 1.89 µM for 24 h.
The effect of compound 25 on apoptosis induction was analysed using Annexin V-FITC/PI apoptosis detection kit using flowcytometer[51]^,[55]^,[56] as illustrated in Supplementary data.

[4] = HepG2, MTT, mean ± SD of three experiments, read-out: IC50 HepG-2
[5] = HCT-116, MTT, mean ± SD of three experiments, read-out: IC50 HCT-116
[6] = MCF7, MTT, mean ± SD of three experiments, read-out: IC50 MCF-7
[7] = range over HCT-116 and MCF-7 and over the listed compounds, read-out: IC50 values ranging (HCT-116 and MCF-7)
[8] = range over HepG-2, HCT-116 and MCF-7 and over the listed compounds, read-out: IC50 values ranging (all tested cell lines)

SMILES | IC50 (tubulin) [µM] | IC50 (HepG-2; [4]) [µM] | IC50 (HCT-116; [5]) [µM] | IC50 (MCF-7; [6]) [µM] | melting point [°C] | IC50 [1, 8] [µM] | further results
COc1ccc2nc(Cl)c(C3CC(c4ccc(Cl)cc4)=NN3C(N)=S)cc2c1 (stereo not shown) [Compound 14, 5–(2-Chloro-6-methoxyquinolin-3-yl)-3–(4-chlorophenyl)-4,5-dihydro-1H-pyrazole-1-carbothioamide] | 0.0501 | 8.92 ± 0.4 | 7.62 ± 0.4 | 10 ± 0.4 | 136 to 137 | – | IC50 [1, 7]: 6.48 to 10.3 µM
COc1ccc2nc(Cl)c(C3CC(c4ccc(Cl)cc4)=NN3c3ccccc3)cc2c1 (stereo not shown) [Compound 20, 2-Chloro-3-[3–(4-chlorophenyl)-1-phenyl-4,5-dihydro-1H-pyrazol-5-yl]-6-methoxyquinoline] | 0.0368 | 2.6 ± 0.1 | 1.81 ± 0.1 | 4.51 ± 0.2 | 145 to 146 | 1.78 to 9.19 | times of colchicine cytotoxic activity, HepG-2 (HepG-2): 5.15 times; times of colchicine cytotoxic activity, HCT-116 (HCT-116): 2.84 times
COc1ccc2nc(Cl)c(C3CC(c4ccc(N)cc4)=NN3c3ccccc3)cc2c1 (stereo not shown) [Compound 21, 4-[5–(2-Chloro-6-methoxyquinolin-3-yl)-1-phenyl-4,5-dihydro-1H-pyrazol-3-yl]aniline] | 0.00911 | 7.32 ± 0.2 | 8.91 ± 0.3 | 9.19 ± 0.3 | 136 to 137 | 1.78 to 9.19 | –
COc1ccc2nc(Cl)c(C3CC(c4cc(OC)c(OC)c(OC)c4)=NN3c3ccccc3)cc2c1 (stereo not shown) [Compound 22, 2-Chloro-6-methoxy-3-[1-phenyl-3–(3,4,5-trimethoxyphenyl)-4,5-dihydro-1H-pyrazol-5-yl]quinoline] | 0.0191 | 4.76 ± 0.2 | 3.04 ± 0.3 | 6.45 ± 0.2 | 136 to 137 | 1.78 to 9.19 | –
COc1ccc2nc(Cl)c(C3CC(c4ccc(N)cc4)=NN3c3ccc([N+](=O)[O-])cc3[N+](=O)[O-])cc2c1 (stereo not shown) [Compound 24, 4-[5–(2-Chloro-6-methoxyquinolin-3-yl)-1–(2,4-dinitrophenyl)-4,5-dihydro-1H-pyrazol-3-yl]aniline] | 0.146 | – | – | – | 139 to 140 | – | IC50 (HepG-2; HepG2, read-out: IC50 HepG-2): 3.14 ± 0.1 µM; IC50 (HCT-116; HCT-116, read-out: IC50 HCT-116): 4.18 ± 0.2 µM; IC50 (MCF-7; MCF7, read-out: IC50 MCF-7): 4.97 ± 0.1 µM; IC50 ([1]; read-out: IC50 values ranging (all tested cell lines)): 1.78 to 9.19 µM
COc1ccc2nc(Cl)c(C3CC(c4cc(OC)c(OC)c(OC)c4)=NN3c3ccc([N+](=O)[O-])cc3[N+](=O)[O-])cc2c1 (stereo not shown) [Compound 25, 2-Chloro-3-[1–(2,4-dinitrophenyl)-3–(3,4,5-trimethoxyphenyl)-4,5-dihydro-1H-pyrazol-5-yl]-6-methoxyquinoline] | 0.0413 | 1.89 ± 0.2 | 1.43 ± 0.1 | 4.21 ± 0.1 | 135 to 136 | 1.78 to 9.19 | times of colchicine cytotoxic activity, HepG-2 (HepG-2): 3.91 times; times of colchicine cytotoxic activity, HCT-116 (HCT-116): 6.51 times; times of colchicine cytotoxic activity, MCF-7 (MCF-7; ratio of IC50 to colchicine): 2.47 times; effect on cell cycle (HepG-2 cells [2]): arrest the cell cycle at G2/M phase; Cell cycle distribution %Pre-G1 (HepG-2 cells [2]; control 2.57): 21.46%; Cell cycle distribution %G2-M (HepG-2 cells [2]; control 13.8): 30.17%; Cell cycle distribution %S (HepG-2 cells [2]; control 24.83): 28.95%; Cell cycle distribution %G0-G1 (HepG-2 cells [2]; control 61.37): 40.88%; apoptotic effect relative to control (HepG-2 cells [3]): thirteen times more than the control; Apoptosis Early (HepG-2 cells [3]; control 0.67): 7.66%; Apoptosis Late (HepG-2 cells [3]; control 0.72): 11.39%; Necrosis (HepG-2 cells [3]; control 1.18): 2.41%; apoptotic effect (early and late apoptosis) (HepG-2 cells [3]; control 1.39%): 19.05%
COc1ccc2nc(Cl)c(-c3cc(-c4ccc(Cl)cc4)nc(=S)[nH]3)cc2c1 [Compound 26, 6–(2-Chloro-6-methoxyquinolin-3-yl)-4–(4-chlorophenyl)pyrimidine-2(1H)-thione] | 0.0345 | 3.62 ± 0.1 | 2.24 ± 0.2 | 5.55 ± 0.2 | 155 to 156 | 1.78 to 9.19 | –
COc1ccc2nc(Cl)c(-c3cc(-c4cc(OC)c(OC)c(OC)c4)nc(=S)[nH]3)cc2c1 [Compound 28, 6–(2-Chloro-6-methoxyquinolin-3-yl)-4–(3,4,5-trimethoxyphenyl)pyrimidine-2(1H)-thione] | 0.0374 | 5.47 ± 0.2 | 5.85 ± 0.3 | 7.34 ± 0.2 | 141 to 142 | 1.78 to 9.19 | –
COc1ccc2nc(Cl)c(-c3cc(-c4ccc(Cl)cc4)nc(=O)[nH]3)cc2c1 [Compound 32, 6–(2-Chloro-6-methoxyquinolin-3-yl)-4–(4-chlorophenyl)pyrimidin-2(1H)-one] | 0.0105 | 8.16 ± 0.2 | 6.48 ± 0.2 | 9.89 ± 0.4 | 180 to 181 | – | IC50 [1, 7]: 6.48 to 10.3 µM
COc1ccc2nc(Cl)c(-c3cc(-c4ccc(N)cc4)nc(=O)[nH]3)cc2c1 [Compound 33, 4–(4-Aminophenyl)-6–(2-chloro-6-methoxyquinolin-3-yl)pyrimidin-2(1H)-one] | 0.0472 | 9.37 ± 0.4 | 8.5 ± 0.2 | 10.3 ± 0.5 | 171 to 172 | – | IC50 [1, 7]: 6.48 to 10.3 µM

— paper PMC7889231 (Journal of Enzyme Inhibition and Medicinal Chemistry, 2021)
